# ChEMBL document CHEMBL4507305, “Data for DCP probe TP-024” (2021)
# Key:
# [1] = molecular target: Activin receptor type-1-like (Homo sapiens) (UniProt P37023); conditions: Compound concentration 1000.0 nM
# [2] = molecular target: ALK tyrosine kinase receptor (Homo sapiens) (UniProt Q9UM73); conditions: Compound concentration 1000.0 nM
# [3] = molecular target: Bone morphogenetic protein receptor type-2 (Homo sapiens) (UniProt Q13873); conditions: Compound concentration 1000.0 nM
# [4] = molecular target: Cytoplasmic tyrosine-protein kinase BMX (Homo sapiens) (UniProt P51813); conditions: Compound concentration 1000.0 nM
# [5] = test system: Serine/threonine-protein kinase B-raf (Homo sapiens), P15056 [V600E]; conditions: Compound concentration 1000.0 nM
# [6] = molecular target: Calcium/calmodulin-dependent protein kinase type 1 (Homo sapiens) (UniProt Q14012); conditions: Compound concentration 1000.0 nM
# [7] = molecular target: Cyclin-dependent kinase 13 (Homo sapiens) (UniProt Q14004); conditions: Compound concentration 1000.0 nM
# [8] = molecular target: Cyclin-dependent kinase 5 (Homo sapiens) (UniProt Q00535); conditions: Compound concentration 1000.0 nM
# [9] = molecular target: Cyclin-dependent kinase 9 (Homo sapiens) (UniProt P50750); conditions: Compound concentration 1000.0 nM
# [10] = molecular target: Serine/threonine-protein kinase 17A (Homo sapiens) (UniProt Q9UEE5); conditions: Compound concentration 1000.0 nM
# [11] = test system: Epidermal growth factor receptor (Homo sapiens), P00533 [L861Q]; conditions: Compound concentration 1000.0 nM
# [12] = molecular target: Ephrin type-A receptor 3 (Homo sapiens) (UniProt P29320); conditions: Compound concentration 1000.0 nM
# [13] = molecular target: Ephrin type-A receptor 7 (Homo sapiens) (UniProt Q15375); conditions: Compound concentration 1000.0 nM
# [14] = molecular target: Tyrosine-protein kinase Fer (Homo sapiens) (UniProt P16591); conditions: Compound concentration 1000.0 nM
# [15] = test system: Receptor-type tyrosine-protein kinase FLT3 (Homo sapiens), P36888 [UNDEFINED MUTATION]; conditions: Compound concentration 1000.0 nM
# [16] = molecular target: Beta-adrenergic receptor kinase 1 (Homo sapiens) (UniProt P25098); conditions: Compound concentration 1000.0 nM
# [17] = molecular target: Glycogen synthase kinase-3 beta (Homo sapiens) (UniProt P49841); conditions: Compound concentration 1000.0 nM
# [18] = molecular target: Inhibitor of nuclear factor kappa-B kinase subunit alpha (Homo sapiens) (UniProt O15111); conditions: Compound concentration 1000.0 nM
# [19] = molecular target: Inhibitor of nuclear factor kappa-B kinase subunit beta (Homo sapiens) (UniProt O14920); conditions: Compound concentration 1000.0 nM
# [20] = molecular target: Tyrosine-protein kinase JAK3 (Homo sapiens) (UniProt P52333); conditions: Compound concentration 1000.0 nM
# [21] = test system: Mast/stem cell growth factor receptor Kit (Homo sapiens), P10721 [L576P]; conditions: Compound concentration 1000.0 nM
# [22] = test system: Mast/stem cell growth factor receptor Kit (Homo sapiens), P10721 [V559D,V654A]; conditions: Compound concentration 1000.0 nM
# [23] = molecular target: Mitogen-activated protein kinase kinase kinase 13 (Homo sapiens) (UniProt O43283); conditions: Compound concentration 1000.0 nM
# [24] = molecular target: Mitogen-activated protein kinase kinase kinase 2 (Homo sapiens) (UniProt Q9Y2U5); conditions: Compound concentration 1000.0 nM
# [25] = molecular target: Myosin light chain kinase (Homo sapiens) (UniProt Q32MK0); conditions: Compound concentration 1000.0 nM
# [26] = molecular target: Serine/threonine-protein kinase MRCK beta (Homo sapiens) (UniProt Q9Y5S2); conditions: Compound concentration 1000.0 nM
# [27] = molecular target: Serine/threonine-protein kinase Nek10 (Homo sapiens) (UniProt Q6ZWH5); conditions: Compound concentration 1000.0 nM
# [28] = molecular target: Mitogen-activated protein kinase 14 (Homo sapiens) (UniProt Q16539); conditions: Compound concentration 1000.0 nM
# [29] = molecular target: Rho-associated protein kinase 2 (Homo sapiens) (UniProt O75116); conditions: Compound concentration 1000.0 nM
# [30] = molecular target: Ribosomal protein S6 kinase alpha-5 (Homo sapiens) (UniProt O75582); conditions: Compound concentration 1000.0 nM
# [31] = molecular target: Ribosomal protein S6 kinase alpha-3 (Homo sapiens) (UniProt P51812); conditions: Compound concentration 1000.0 nM
# [32] = molecular target: Ribosomal protein S6 kinase alpha-6 (Homo sapiens) (UniProt Q9UK32); conditions: Compound concentration 1000.0 nM
# [33] = molecular target: SRSF protein kinase 1 (Homo sapiens) (UniProt Q96SB4); conditions: Compound concentration 1000.0 nM
# [34] = molecular target: Serine/threonine-protein kinase 33 (Homo sapiens) (UniProt Q9BYT3); conditions: Compound concentration 1000.0 nM
# [35] = molecular target: Angiopoietin-1 receptor (Homo sapiens) (UniProt Q02763); conditions: Compound concentration 1000.0 nM
# [36] = molecular target: Serine/threonine-protein kinase tousled-like 1 (Homo sapiens) (UniProt Q9UKI8); conditions: Compound concentration 1000.0 nM
# [37] = molecular target: Serine/threonine-protein kinase TNNI3K (Homo sapiens) (UniProt Q59H18); conditions: Compound concentration 1000.0 nM
# [38] = molecular target: BDNF/NT-3 growth factors receptor (Homo sapiens) (UniProt Q16620); conditions: Compound concentration 1000.0 nM
# [39] = molecular target: Tyrosine-protein kinase TXK (Homo sapiens) (UniProt P42681); conditions: Compound concentration 1000.0 nM
# [40] = molecular target: Wee1-like protein kinase 2 (Homo sapiens) (UniProt P0C1S8); conditions: Compound concentration 1000.0 nM
# [41] = molecular target: Serine/threonine-protein kinase WNK4 (Homo sapiens) (UniProt Q96J92); conditions: Compound concentration 1000.0 nM
# [42] = molecular target: Serine/threonine-protein kinase 25 (Homo sapiens) (UniProt O00506); conditions: Compound concentration 1000.0 nM
# [43] = molecular target: D(1A) dopamine receptor (Homo sapiens) (UniProt P21728); conditions: Compound concentration 10.0 uM
# [44] = molecular target: D(2) dopamine receptor (Homo sapiens) (UniProt P14416); conditions: Compound concentration 10.0 uM
# [45] = molecular target: Muscarinic acetylcholine receptor M1 (Homo sapiens) (UniProt P11229); conditions: Compound concentration 10.0 uM
# Sequence of Muscarinic acetylcholine receptor M1 (Homo sapiens) (P11229 whole entry): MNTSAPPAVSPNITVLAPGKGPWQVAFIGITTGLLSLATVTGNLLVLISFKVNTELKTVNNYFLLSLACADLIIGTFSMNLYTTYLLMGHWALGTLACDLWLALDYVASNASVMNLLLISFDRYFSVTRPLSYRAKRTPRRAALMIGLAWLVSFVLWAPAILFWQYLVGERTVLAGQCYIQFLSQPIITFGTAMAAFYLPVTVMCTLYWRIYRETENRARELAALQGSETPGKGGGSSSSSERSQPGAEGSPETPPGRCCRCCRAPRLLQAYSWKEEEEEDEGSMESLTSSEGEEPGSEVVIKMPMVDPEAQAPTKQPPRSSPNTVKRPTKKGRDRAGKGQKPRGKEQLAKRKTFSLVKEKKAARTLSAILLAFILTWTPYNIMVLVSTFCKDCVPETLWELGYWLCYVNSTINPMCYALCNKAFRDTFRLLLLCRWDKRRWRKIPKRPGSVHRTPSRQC
# Sequence of D(2) dopamine receptor (Homo sapiens) (P14416 whole entry): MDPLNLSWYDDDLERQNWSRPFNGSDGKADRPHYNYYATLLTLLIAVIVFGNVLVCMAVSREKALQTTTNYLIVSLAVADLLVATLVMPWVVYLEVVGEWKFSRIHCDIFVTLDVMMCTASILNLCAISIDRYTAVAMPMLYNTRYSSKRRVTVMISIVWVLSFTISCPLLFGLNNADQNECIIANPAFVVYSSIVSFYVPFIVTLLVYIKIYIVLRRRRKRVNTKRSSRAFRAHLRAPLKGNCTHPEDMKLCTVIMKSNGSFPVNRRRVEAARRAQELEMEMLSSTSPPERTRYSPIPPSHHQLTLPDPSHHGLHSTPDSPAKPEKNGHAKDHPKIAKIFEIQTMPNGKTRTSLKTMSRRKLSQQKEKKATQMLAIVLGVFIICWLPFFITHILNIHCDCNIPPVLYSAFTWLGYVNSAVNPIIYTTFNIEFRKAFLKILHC
# Sequence of Ephrin type-A receptor 3 (Homo sapiens) (P29320 whole entry): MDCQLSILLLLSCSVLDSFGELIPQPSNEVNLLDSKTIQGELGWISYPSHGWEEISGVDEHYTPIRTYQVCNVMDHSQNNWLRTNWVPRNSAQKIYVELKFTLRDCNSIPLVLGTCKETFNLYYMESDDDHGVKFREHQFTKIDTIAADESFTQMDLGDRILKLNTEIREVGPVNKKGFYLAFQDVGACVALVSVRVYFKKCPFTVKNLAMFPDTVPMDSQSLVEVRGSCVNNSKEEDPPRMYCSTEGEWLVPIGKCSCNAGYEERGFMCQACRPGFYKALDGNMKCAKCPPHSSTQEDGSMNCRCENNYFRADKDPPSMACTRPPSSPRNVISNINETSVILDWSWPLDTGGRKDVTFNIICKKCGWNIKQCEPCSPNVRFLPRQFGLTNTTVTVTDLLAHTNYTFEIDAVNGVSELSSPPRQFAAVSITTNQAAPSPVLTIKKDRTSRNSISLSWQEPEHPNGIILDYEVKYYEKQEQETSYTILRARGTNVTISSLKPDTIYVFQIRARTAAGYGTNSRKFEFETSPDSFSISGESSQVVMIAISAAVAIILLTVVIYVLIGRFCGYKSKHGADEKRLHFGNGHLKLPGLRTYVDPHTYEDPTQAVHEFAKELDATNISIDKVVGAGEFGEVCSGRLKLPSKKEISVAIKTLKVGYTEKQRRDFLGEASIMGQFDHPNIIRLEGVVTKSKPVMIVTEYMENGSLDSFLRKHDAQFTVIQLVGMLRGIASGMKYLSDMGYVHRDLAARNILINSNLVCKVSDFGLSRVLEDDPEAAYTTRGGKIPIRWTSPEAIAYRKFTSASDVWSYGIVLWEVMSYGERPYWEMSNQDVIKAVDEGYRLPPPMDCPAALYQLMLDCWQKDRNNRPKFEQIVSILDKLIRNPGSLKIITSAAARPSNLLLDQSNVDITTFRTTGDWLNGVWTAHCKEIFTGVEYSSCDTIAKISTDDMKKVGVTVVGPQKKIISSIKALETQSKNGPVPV
# Sequence of Rho-associated protein kinase 2 (Homo sapiens) (O75116 whole entry, looked up): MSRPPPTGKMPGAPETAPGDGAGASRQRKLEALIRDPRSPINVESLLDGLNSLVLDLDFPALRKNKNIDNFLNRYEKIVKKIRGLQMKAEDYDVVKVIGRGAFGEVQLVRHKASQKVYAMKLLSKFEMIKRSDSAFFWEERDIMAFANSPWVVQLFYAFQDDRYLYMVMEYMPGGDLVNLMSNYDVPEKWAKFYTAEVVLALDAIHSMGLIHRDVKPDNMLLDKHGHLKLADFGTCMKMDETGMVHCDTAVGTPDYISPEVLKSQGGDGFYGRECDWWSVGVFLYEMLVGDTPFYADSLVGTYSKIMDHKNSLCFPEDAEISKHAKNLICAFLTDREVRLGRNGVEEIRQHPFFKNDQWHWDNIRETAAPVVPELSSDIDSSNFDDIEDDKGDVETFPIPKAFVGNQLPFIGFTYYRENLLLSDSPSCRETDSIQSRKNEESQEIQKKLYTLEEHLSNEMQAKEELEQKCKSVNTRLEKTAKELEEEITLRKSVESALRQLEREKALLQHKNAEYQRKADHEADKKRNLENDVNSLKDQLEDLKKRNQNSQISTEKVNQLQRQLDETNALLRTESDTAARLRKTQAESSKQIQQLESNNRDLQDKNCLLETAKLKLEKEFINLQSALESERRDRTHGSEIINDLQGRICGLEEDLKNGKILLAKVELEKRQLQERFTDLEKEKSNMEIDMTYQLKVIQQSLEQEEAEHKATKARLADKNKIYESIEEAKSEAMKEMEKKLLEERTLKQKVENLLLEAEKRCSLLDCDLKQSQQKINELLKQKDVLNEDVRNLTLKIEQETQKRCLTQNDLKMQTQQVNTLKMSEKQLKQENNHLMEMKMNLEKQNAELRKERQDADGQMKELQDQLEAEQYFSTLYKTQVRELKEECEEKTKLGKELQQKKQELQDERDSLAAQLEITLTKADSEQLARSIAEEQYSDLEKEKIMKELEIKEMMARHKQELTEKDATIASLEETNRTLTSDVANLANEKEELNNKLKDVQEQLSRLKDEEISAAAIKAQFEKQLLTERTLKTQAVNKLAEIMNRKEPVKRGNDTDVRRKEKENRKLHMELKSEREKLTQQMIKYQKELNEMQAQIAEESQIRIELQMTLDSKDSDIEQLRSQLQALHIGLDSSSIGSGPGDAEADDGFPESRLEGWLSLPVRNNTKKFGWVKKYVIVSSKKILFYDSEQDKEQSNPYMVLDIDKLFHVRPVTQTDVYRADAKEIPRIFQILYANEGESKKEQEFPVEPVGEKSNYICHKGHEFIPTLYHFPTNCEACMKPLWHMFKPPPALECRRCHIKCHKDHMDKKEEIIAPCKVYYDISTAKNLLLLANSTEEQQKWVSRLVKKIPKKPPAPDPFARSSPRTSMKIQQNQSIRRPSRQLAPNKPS
# Sequence of Serine/threonine-protein kinase 33 (Homo sapiens) (Q9BYT3 whole entry, looked up): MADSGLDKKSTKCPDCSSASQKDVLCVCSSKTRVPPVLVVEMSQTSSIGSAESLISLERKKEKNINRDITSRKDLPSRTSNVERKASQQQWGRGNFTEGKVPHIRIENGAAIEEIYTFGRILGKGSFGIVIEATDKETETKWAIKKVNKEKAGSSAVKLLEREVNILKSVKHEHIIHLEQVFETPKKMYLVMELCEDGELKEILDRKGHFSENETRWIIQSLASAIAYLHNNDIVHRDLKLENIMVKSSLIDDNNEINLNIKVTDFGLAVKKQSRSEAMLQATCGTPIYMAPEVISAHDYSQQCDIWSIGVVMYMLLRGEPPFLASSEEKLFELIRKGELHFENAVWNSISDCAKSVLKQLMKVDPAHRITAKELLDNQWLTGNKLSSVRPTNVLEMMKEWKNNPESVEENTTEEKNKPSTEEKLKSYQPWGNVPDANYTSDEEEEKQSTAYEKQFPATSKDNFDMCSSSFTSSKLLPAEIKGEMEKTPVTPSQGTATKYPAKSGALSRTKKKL
# Sequence of BDNF/NT-3 growth factors receptor (Homo sapiens) (Q16620 32-822 limits assumed): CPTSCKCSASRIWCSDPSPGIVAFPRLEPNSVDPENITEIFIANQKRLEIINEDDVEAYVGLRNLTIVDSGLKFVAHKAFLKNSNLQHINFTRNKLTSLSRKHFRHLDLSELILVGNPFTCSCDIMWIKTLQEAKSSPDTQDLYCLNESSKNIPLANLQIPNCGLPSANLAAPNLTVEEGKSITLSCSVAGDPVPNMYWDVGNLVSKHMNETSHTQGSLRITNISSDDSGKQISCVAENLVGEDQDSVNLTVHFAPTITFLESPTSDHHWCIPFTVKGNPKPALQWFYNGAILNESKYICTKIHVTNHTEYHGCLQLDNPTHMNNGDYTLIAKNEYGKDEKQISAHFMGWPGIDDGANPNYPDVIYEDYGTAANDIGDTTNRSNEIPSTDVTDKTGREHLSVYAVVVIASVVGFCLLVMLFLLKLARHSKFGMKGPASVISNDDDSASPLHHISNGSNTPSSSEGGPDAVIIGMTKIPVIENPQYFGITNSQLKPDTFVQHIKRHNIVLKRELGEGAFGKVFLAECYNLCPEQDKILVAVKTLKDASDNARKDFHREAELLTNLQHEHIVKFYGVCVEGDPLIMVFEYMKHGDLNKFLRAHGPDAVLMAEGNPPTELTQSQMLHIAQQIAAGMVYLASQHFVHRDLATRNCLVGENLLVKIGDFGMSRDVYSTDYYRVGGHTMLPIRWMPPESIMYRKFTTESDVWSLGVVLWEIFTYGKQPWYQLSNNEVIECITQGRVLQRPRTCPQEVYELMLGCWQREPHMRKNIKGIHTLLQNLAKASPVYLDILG
# Sequence of Glycogen synthase kinase-3 beta (Homo sapiens) (P49841 whole entry, looked up): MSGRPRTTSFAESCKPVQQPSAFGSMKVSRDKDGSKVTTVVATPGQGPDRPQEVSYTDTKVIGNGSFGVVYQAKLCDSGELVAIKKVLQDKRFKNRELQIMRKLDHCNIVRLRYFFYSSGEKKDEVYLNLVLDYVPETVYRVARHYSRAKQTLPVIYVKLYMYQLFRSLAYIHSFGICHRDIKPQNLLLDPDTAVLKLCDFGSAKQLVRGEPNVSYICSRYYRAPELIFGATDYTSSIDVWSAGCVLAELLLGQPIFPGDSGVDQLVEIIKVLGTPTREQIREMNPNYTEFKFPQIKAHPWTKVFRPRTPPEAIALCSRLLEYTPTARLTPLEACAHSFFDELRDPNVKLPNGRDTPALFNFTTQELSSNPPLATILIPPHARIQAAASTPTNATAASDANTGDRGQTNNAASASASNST
smiles,measurement,setting,value
Cc1nc(Cc2cccc(C(F)(F)F)c2)sc1-c1ccc(C(N)=O)nc1 [TP-024n],residual activity,[1],99%
same,residual activity,[2],99%
same,residual activity,[3],100%
same,residual activity,[4],59%
same,residual activity,[5],100%
same,residual activity,[6],86%
same,residual activity,[7],100%
same,residual activity,[8],100%
same,residual activity,[9],100%
same,residual activity,[10],82%
same,residual activity,[11],100%
same,residual activity,[12],88%
same,residual activity,[13],100%
same,residual activity,[14],100%
same,residual activity,[15],100%
same,residual activity,[16],100%
same,residual activity,[17],100%
same,residual activity,[18],100%
same,residual activity,[19],72%
same,residual activity,[20],100%
same,residual activity,[21],89%
same,residual activity,[22],83%
same,residual activity,[23],100%
same,residual activity,[24],100%
same,residual activity,[25],81%
same,residual activity,[26],39%
same,residual activity,[27],100%
same,residual activity,[28],100%
same,residual activity,[29],59%
same,residual activity,[30],83%
same,residual activity,[31],100%
same,residual activity,[32],100%
same,residual activity,[33],75%
same,residual activity,[34],91%
same,residual activity,[35],80%
same,residual activity,[36],100%
same,residual activity,[37],100%
same,residual activity,[38],84%
same,residual activity,[39],70%
same,residual activity,[40],100%
same,residual activity,[41],100%
same,residual activity,[42],88%
same,inhibition,[43],-6.03%
same,inhibition,[44],-5.26%
same,inhibition,[45],10%
Cc1cc(-n2nc(Cc3cc(F)cc(C(F)(F)F)c3)nc2C)ccc1C(N)=O [TP-024],residual activity,[1],100%
same,residual activity,[2],100%
same,residual activity,[3],100%
same,residual activity,[4],100%
same,residual activity,[5],100%
same,residual activity,[6],90%
same,residual activity,[7],100%
same,residual activity,[8],100%
same,residual activity,[9],100%
same,residual activity,[10],100%
same,residual activity,[11],100%
same,residual activity,[12],94%
same,residual activity,[13],98%
same,residual activity,[14],79%
same,residual activity,[15],100%
same,residual activity,[16],100%
same,residual activity,[17],98%
same,residual activity,[18],100%
same,residual activity,[19],92%
same,residual activity,[20],100%
same,residual activity,[21],52%
same,residual activity,[22],97%
same,residual activity,[23],100%
same,residual activity,[24],100%
same,residual activity,[25],92%
same,residual activity,[26],100%
same,residual activity,[27],100%
same,residual activity,[28],95%
same,residual activity,[29],96%
same,residual activity,[30],88%
same,residual activity,[31],95%
same,residual activity,[32],100%
same,residual activity,[33],81%
same,residual activity,[34],100%
same,residual activity,[35],92%
same,residual activity,[36],93%
same,residual activity,[37],100%
same,residual activity,[38],98%
same,residual activity,[39],84%
same,residual activity,[40],100%
same,residual activity,[41],100%
same,residual activity,[42],89%
same,inhibition,[43],-4.72%
same,inhibition,[44],0.68%
same,inhibition,[45],-7.57%
